The values that follow come from patent US10329294B2, “Pyrazolopyrimidine inhibitors of IRAK4 activity” (MERCK SHARP & DOHME CORP., priority 2015, dated 2019).

Structures are written as SMILES. Structures can show the parent of a compound that is named as a salt. Where two headings read alike, the source gives them in different places.

In the assay the target is IRAK4 (Homo sapiens (Human), UniProt Q9NWZ3). Description: IRAK4 Kinase Assay. The class given is biochemical. The following applies: IMAP fluorescence polarization, 0.5 nM GST tagged IRAK4, 100 μM ATP, 30 minutes at 25° C. For orientation: In fluorescence polarisation assays a small probe gives low polarisation when free and higher when bound to something large.
Chain of IRAK4 (Q9NWZ3 whole entry): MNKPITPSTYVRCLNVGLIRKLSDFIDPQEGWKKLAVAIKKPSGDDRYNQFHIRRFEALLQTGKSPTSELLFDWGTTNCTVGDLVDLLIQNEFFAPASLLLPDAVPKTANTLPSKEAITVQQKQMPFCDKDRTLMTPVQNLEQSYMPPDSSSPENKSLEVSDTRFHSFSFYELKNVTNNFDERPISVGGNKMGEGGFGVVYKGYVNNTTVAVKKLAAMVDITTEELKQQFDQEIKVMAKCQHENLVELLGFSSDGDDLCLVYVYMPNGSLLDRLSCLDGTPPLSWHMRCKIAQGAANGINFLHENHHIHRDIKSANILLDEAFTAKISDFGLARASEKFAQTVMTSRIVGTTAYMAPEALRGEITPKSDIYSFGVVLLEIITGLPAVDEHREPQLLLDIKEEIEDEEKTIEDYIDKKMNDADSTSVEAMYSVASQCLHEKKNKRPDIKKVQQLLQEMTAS

Take `N[C@H]1CCCC[C@H]1Nc1ccn2ncc(C(=O)Nc3cn(CC(F)(F)F)nc3C(F)(F)F)c2n1` [Example 295, 5-{[(1R,2S)-2-aminocyclohexyl]amino}-N-[1-(2,2,2-trifluoroethyl)-3-(trifluoromethyl)-1H-pyrazol-4-yl]pyrazolo[1,5-a]pyrimidine-3-carboxamide trifluoroacetate]: for the setting “read-out: IRAK4 IC50”, the IC50 (as a rule, the concentration at which inhibition is half-maximal) came to 1 nM.

The molecule `CC(C)n1cc(NC(=O)c2cnn3ccc(N[C@@H]4CCCC[C@@H]4O)nc23)c(C(F)(F)F)n1` [Example 52, 5-{[(1R,2S)-2-hydroxycyclohexyl]amino}-N-[1-(1-methylethyl)-3-(trifluoromethyl)-1H-pyrazol-4-yl]pyrazolo[1,5-a]pyrimidine-3-carboxamide] displayed an IC50 (IRAK4 IC50 (nM)) of 64 nM.

As for `Cn1cc(NC(=O)c2cnn3ccc(N[C@@H]4CNCC[C@@H]4F)nc23)c(C(F)(F)F)n1` (single isomer, unassigned) [Example 230, 5-{[(3R,4S)- or (3S,4R)-4-fluoropiperidin-3-yl]amino}-N-[1-methyl-3-(trifluoromethyl)-1H-pyrazol-4-yl]pyrazolo[1,5-a]pyrimidine-3-carboxamide], the IC50 (read-out: IRAK4 IC50) came to 0.5 nM.

With `O=C(Nc1cn(CC(F)F)nc1C(F)(F)F)c1cnn2ccc(N3CC4CCC3CN4)nc12` (stereo not drawn) [Example 65, 5-(2,5-diazabicyclo[2.2.2]oct-2-yl)-N-[1-(2,2-difluoroethyl)-3-(trifluoromethyl)-1H-pyrazol-4-yl]pyrazolo[1,5-a]pyrimidine-3-carboxamide trifluoroacetate], under “read-out: IRAK4 IC50”, the IC50 turned out to be 59 nM.

As to `Cn1cc(NC(=O)c2cnn3ccc(N[C@@H]4CNC[C@H](F)C4)nc23)c(C(F)F)n1` [Example 259, N-[3-(difluoromethyl)-1-methyl-1H-pyrazol-4-yl]-5-{[(3S,5R)-5-fluoropiperidin-3-yl]amino}pyrazolo[1,5-a]pyrimidine-3-carboxamide], the IC50 (read-out: IRAK4 IC50) is 156 nM.

In the case of `O=C(Nc1cscc1C(F)F)c1cnn2ccc(N3C[C@H]4CC[C@@H]3CN4)nc12` (single isomer, unassigned) [Example 155, 5-[(1S,4S)- or (1R,4R)-2,5-diazabicyclo[2.2.2]oct-2-yl]-N-[4-(difluoromethyl)thiophen-3-yl]pyrazolo[1,5-a]pyrimidine-3-carboxamide trifluoroacetate], the IC50 (read-out: IRAK4 IC50) turned out to be 32 nM.

On to `Cn1cc(NC(=O)c2cnn3ccc(N4C[C@H]5CC[C@@H]4CN5)nc23)c(C(F)(F)F)n1` (single isomer, unassigned) [Example 77, 5-[1S,4S)- or (1R,4R)-2,5-diazabicyclo[2.2.2]oct-2-yl]-N-[1-methyl-3-(trifluoromethyl)-1H-pyrazol-4-yl]pyrazolo[1,5-a]pyrimidine-3-carboxamide trifluoroacetate], for which the IC50 (read-out: IRAK4 IC50) worked out at 19 nM.

Turning to `Cn1cc(NC(=O)c2cnn3ccc(N[C@H]4CCCCNC4)nc23)c(C(F)F)n1` (single isomer, unassigned) [Example 163, 5-[(3S)- or (3R)-azepan-3-ylamino]-N-[3-(difluoromethyl)-1-methyl-1H-pyrazol-4-yl]pyrazolo[1,5-a]pyrimidine-3-carboxamide trifluoroacetate], the 50% inhibitory concentration (IC50) (read-out: IRAK4 IC50) turned out to be 7 nM.

Take `N#Cc1sccc1NC(=O)c1cnn2ccc(N3CC4CCC3CN4)nc12` (stereo not drawn) [Example 110, N-(2-cyanothiophen-3-yl)-5-(2,5-diazabicyclo[2.2.2]oct-2-yl)pyrazolo[1,5-a]pyrimidine-3-carboxamide trifluoroacetate]: the half-maximal inhibitory concentration (IC50) (read-out: IRAK4 IC50) was determined as 193 nM.

Turning to `Cn1cc(NC(=O)c2cnn3ccc(N4CCN5CCC4C5)nc23)c(C(F)(F)F)n1` (stereo not drawn) [Example 43, 5-(1,4-diazabicyclo[3.2.1]oct-4-yl)-N-[1-methyl-3-(trifluoromethyl)-1H-pyrazol-4-yl]pyrazolo[1,5-a]pyrimidine-3-carboxamide trifluoroacetate], the half-maximal inhibitory concentration (IC50) (read-out: IRAK4 IC50) came out at 45 nM.

Consider `O=C(Nc1cn(C(F)F)nc1C(F)(F)F)c1cnn2ccc(N3CCNCC4(CC4)C3)nc12` [Example 68, 5-(5,8-diazaspiro[2.6]non-5-yl)-N-[1-(difluoromethyl)-3-(trifluoromethyl)-1H-pyrazol-4-yl]pyrazolo[1,5-a]pyrimidine-3-carboxamide trifluoroacetate], for which the IC50 (read-out: IRAK4 IC50) came out at 32 nM.

In the case of `O=C(Nc1ccccc1I)c1cnn2ccc(N[C@@H]3CCCC[C@@H]3O)nc12` [Example 101, 5-{[(1R,2S)-2-hydroxycyclohexyl]amino}-N-(2-iodophenyl)pyrazolo[1,5-a]pyrimidine-3-carboxamide], the 50% inhibitory concentration (IC50) (read-out: IRAK4 IC50) was found to be 7650 nM.

With `CC(C)n1cc(NC(=O)c2cnn3ccc(N[C@@H]4CCCC(F)(F)[C@@H]4N)nc23)c(C(F)F)n1` [Example 200, 5-{[(1R,2R)-2-amino-3,3-difluorocyclohexyl]amino}-N-[3-(difluoromethyl)-1-(1-methylethyl)-1H-pyrazol-4-yl]pyrazolo[1,5-a]pyrimidine-3-carboxamide trifluoroacetate], where the note is “read-out: IRAK4 IC50”, the IC50 is 36 nM.

As to `Cn1cc(NC(=O)c2cnn3ccc(N4CCC(F)(F)[C@@H](N)C4)nc23)c(C(F)F)n1` (single isomer, unassigned) [Example 189, 5-[(4R)- or (4S)-(3-amino-4,4-difluoropiperidin-1-yl)-N-[3-(difluoromethyl)-1-methyl-1H-pyrazol-4-yl]pyrazolo[1,5-a]pyrimidine-3-carboxamide trifluoroacetate], the IC50 (read-out: IRAK4 IC50) was 2 nM.

`N#Cc1sccc1NC(=O)c1cnn2ccc(N[C@@H]3CCCC[C@@H]3O)nc12` [Example 187, N-(2-cyanothiophen-3-yl)-5-{[(1R,2S)-2-hydroxycyclohexyl]amino} pyrazolo[1,5-a]pyrimidine-3-carboxamide]: where the note is “read-out: IRAK4 IC50”, the IC50 stood at 250 nM.
